Publication PMC4593073, “Non-invasive imaging and cellular tracking of pulmonary emboli by near-infrared fluorescence and positron-emission tomography” (Nature Communications, 2015)
Where no end group is shown, it is not given here.

Columns and labels:
Cells grown on plastic = assay: Uptake of the cell viability dye DRAQ7; type: cell-based; details: 50 μM, 2 hrs
Experimental: Discrimination between on and off states in PAR1–RIP observed in vitro translated in vivo. To gauge the interaction of RIP probes with cells, we measured their toxicity at ∼6- to 600-fold excess of the intended use in vivo. […] Inclusion of the highly specific thrombin inhibitor hirudin blocked these protease-dependent effects and confirmed the key role for thrombin in this process. Cells grown on plastic were incubated with […] pro-peptide to confirm that uptake of the fluorescent dye DRAQ7 only occurred in the protease-treated form (Supplementary Fig. 3a) not the pro-peptide alone (Supplementary Fig. 3b). Concentrations required to mediate toxicity in cell culture exceed those used in animal studies described below by several orders of magnitude, but provide a useful readout nonetheless.
Supplementary Figure 3 – The cellular effects of the active PAR1-RIP peptide. High-doses (50 μM) of the cleaved PAR1-RIP lead to
concentrations for extended periods of time (2 hrs). Scale bars, 20 µm.
(1 picture or pasted object on this page, not shown here)

thrombin (factor IIa) = molecular target: T1, thrombin (factor IIa) (Homo sapiens, UniProt P00734); assay: Peptide kinetics: proteolysis of the probe followed by HPLC/mass spectrometry; type: biochemical; details: HPLC, 37 °C, PBS pH 7.4, mean±s.d., n=3
T1 construct: Human clotting factors IIa (thrombin), VIIa, IXa, Xa, XIa, plasmin and aPC; purchased Haematologic Technologies
From the text: Comparison of the rates of protease-mediated hydrolysis of a tripeptide chromogenic substrate (P3–P1), quenched oligopeptide substrate (P4–P4′) and our PAR1–RIP probe (P4–P14′) emphasize the value of a larger surface area of interaction between enzyme and substrate in RIP probes. When substrates have limited potential contacts with the protease, and the majority of them are shared with homologous enzymes, their turnover is non-specific. For example, the chromogenic substrate d–Phe–Pro–Arg–paranitroanilide is not only an excellent substrate for thrombin but also for many other proteases (Fig. 3f). As substrate length increases to include four additional residues on the prime side of the scissile bond, specificity increases 10-fold (Fig. 3g). Inclusion of the 10 amino acids responsible for exosite binding to thrombin further increases the relative specificity eightfold and reduces the KM to a physiologically relevant value of 0.2±0.1 μM (mean±s.d., n=3; Fig. 3h). […]
Human clotting factors IIa (thrombin), VIIa, IXa, Xa, XIa, plasmin and aPC were obtained from Haematologic Technologies (Vermont, USA). Kinetics studies of probe digestion were measured by HPLC over the course of 1 h at 37 °C, using 10 nM of enzyme and 1 μM of PAR1–RIP in PBS (pH 7.4). […]

[1] = Acute toxicology: serum panel of hepatic and renal functions; type: in vivo, C57BL/6J mice; parameters: Phosphorus / Calcium: unit not given here; details: mean±s.e.m., n=3
Experimental: To address the safety profile of this novel functional imaging platform, PAR1–RIP probe was administered in C57BL/6J mice at a concentration threefold higher than used for the imaging studies (150 picomoles, 100 μl). […] The serum was pipetted into clean tubes and frozen before shipment to IDEXX BioResearch (Sacramento, CA) for a comprehensive panel of hepatic and renal functions. All tests were performed using an Olympus 5400 analyser. Measurements of the following enzymes and electrolytes were provided: alkaline phosphatase, alanine aminotransferase, aspartate aminotransferase, creatine phosphokinase, total protein, direct bilirubin, indirect bilirubin, total bilirubin, globulin, blood urea nitrogen, creatinine, cholesterol, glucose, calcium, phosphorus, bicarbonate, chloride, potassium, sodium and haemolysis index.
Toxicology results are presented as mean±s.e.m. Data were analysed using GraphPad Prism (GraphPad Software Inc., San Diego, CA) and statistical differences among experimental groups of animals were detected using one-way analysis of variance (ANOVA) followed by Dunnett’s post-test; P<0.05 was considered statistically significant.

[2] = mouse serum 6 hs after 150 picomoles
[3] = mouse serum 6 hs after 150 picomoles, marked *
[4] = mouse serum 48 hs after 150 picomoles
[5] = mouse serum 72hs after 150 picomoles
[6] = mouse serum 72hs after 150 picomoles, marked *

In the case of “FVQWFSKFLGKLLPR [thrombin-treated PAR1–RIP]”, the “uptake of cell viability dye DRAQ7” value (Cells grown on plastic) is reported as “uptake of cell viability dyes including DRAQ7”.
With “FVQWFSKFLGKLLPRSFLLQDPNDQYEPF [PAR1–RIP]” the Km (thrombin (factor IIa)) was 0.2 ± 0.1 µM, the “Alanine Aminotransferase (ALT)” value [1, 2] was 29.7±1.4 U/L and the Albumin [1, 2] was 2.7 ± 0.1 g/dL. The “Aspartate Aminotransferase (AST)” value [1, 2] was 61.7 ± 4.0 U/L, the “Blood Urea Nitrogen (BUN)” value [1, 2] was 27.0 ± 2.6 mg/dL and the Calcium [1, 2] was 9.1 ± 0.1. For the same sequence, the Chloride [1, 2] was 116.0 ± 0.6 mEq/ L, the Cholesterol [1, 2] was 79 ± 0.6 mg/dL and the Creatinine [1, 2] was 0.2 ± 0.0 mg/dL. The “Creatinine Phosphokinase (CPK)” value [1, 2] was 144.7 ± 27.4 U/L, the “Direct Bilirubin” value [1, 2] was 0.0 ± 0.0 mg/dL and the Globulin [1, 2] was 1.9 ± 0.0 g/dL. The Glucose [1, 2] was 238.7 ± 2.9 mg/dL, the “Indirect Bilirubin” value [1, 2] was 0.1 ± 0.0 mg/dL and the Phosphorus [1, 2] was 6.9 ± 0.2. For the same sequence, the Potassium [1, 2] was 4.7 ± 0.1 mEq/ L, the Sodium [1, 2] was 152.3 ± 0.3 mEq/ L and the “Total Bilirubin” value [1, 2] was 0.1 ± 0.0 mg/dL. For the same sequence, the “Total Protein” value [1, 2] was 4.6 ± 0.1 g/dL, the Alkaline phosphatase [1, 3] was 149.7 ± 12.8 U/L and the Bicarbonate [1, 3] was 13.3 ± 0.3 mEq/ L. For the same sequence, the “Alanine Aminotransferase (ALT)” value [1, 4] was 26.3 ± 0.3 U/L, the Albumin [1, 4] was 2.6 ± 0.1 g/dL and the Alkaline phosphatase [1, 4] was 120.7 ± 6.4 U/L. The “Aspartate Aminotransferase (AST)” value [1, 4] was 57.6 ± 6.3 U/L, the Bicarbonate [1, 4] was 15.0 ± 0.0 mEq/ L and the “Blood Urea Nitrogen (BUN)” value [1, 4] was 23.7 ± 1.4 mg/dL. For the same sequence, the Calcium [1, 4] was 9.0 ± 0.1, the Chloride [1, 4] was 110.3 ± 0.8 mEq/ L and the Creatinine [1, 4] was 0.2 ± 0.0 mg/dL. The “Creatinine Phosphokinase (CPK)” value [1, 4] was 150.3 ± 38.0 U/L, the “Direct Bilirubin” value [1, 4] was 0.1 ± 0.0 mg/dL and the Globulin [1, 4] was 2.0 ± 0.1 g/dL. The Glucose [1, 4] was 203.0 ± 3.5 mg/dL, the “Indirect Bilirubin” value [1, 4] was 0.1 ± 0.0 mg/dL and the Phosphorus [1, 4] was 6.8 ± 0.2. For the same sequence, the Potassium [1, 4] was 4.6 ± 0.1 mEq/ L, the Sodium [1, 4] was 153.3 ± 0.9 mEq/ L and the “Total Bilirubin” value [1, 4] was 0.12 ± 0.0 mg/dL. For the same sequence, the “Total Protein” value [1, 4] was 4.6 ± 0.1 g/dL, the Cholesterol ([1]; mouse serum 48 hs after 150 picomoles, marked *) was 84.3 ± 3.5 mg/dL and the “Alanine Aminotransferase (ALT)” value [1, 5] was 20.0±1.0 U/L. The Albumin [1, 5] was 2.6 ± 0.0 g/dL, the Alkaline phosphatase [1, 5] was 107.0 ± 7.8 U/L and the “Aspartate Aminotransferase (AST)” value [1, 5] was 53.7 ± 12.2 U/L. The “Blood Urea Nitrogen (BUN)” value [1, 5] was 26.7 ± 1.8 mg/dL, the Calcium [1, 5] was 9.1 ± 0.2 and the Chloride [1, 5] was 110.3 ± 0.3 mEq/ L. The Cholesterol [1, 5] was 82.7 ± 1.7 mg/dL, the Creatinine [1, 5] was 0.2 ± 0.0 mg/dL and the “Creatinine Phosphokinase (CPK)” value [1, 5] was 156.3 ± 67.7 U/L. For the same sequence, the “Direct Bilirubin” value [1, 5] was 0.0 ± 0.0 mg/dL, the Globulin [1, 5] was 1.9 ± 0.1 g/dL and the Glucose [1, 5] was 268.0 ± 20.1 mg/dL. The “Indirect Bilirubin” value [1, 5] was 0.1 ± 0.0 mg/dL, the Phosphorus [1, 5] was 7.4 ± 0.2 and the Potassium [1, 5] was 4.9 ± 0.2 mEq/ L. The “Total Bilirubin” value [1, 5] was 0.1 ± 0.0 mg/dL, the “Total Protein” value [1, 5] was 4.6 ± 0.1 g/dL and the Bicarbonate [1, 6] was 18.3 ± 0.3 mEq/ L. For the same sequence, the Sodium [1, 6] was 150 ± 0.0 mEq/ L.
